{"source": "patent US11998595B2", "about": "“Telomerase polypeptide vaccine for treating cancer” (Ultimovacs AS, priority 2010, dated 2024)", "key": {"[1]": {"test_system": "late stage inoperable colon cancer patient", "assay": "Clinical course of vaccinated colon cancer patient", "assay_type": "in vivo, human", "details": "patient Colon ca P1", "procedure": "A comparison of the patients studied in Example 4 was carried out. In brief, seven patients were identified as clinical responders following a cancer diagnosis and vaccination with an hTERT vaccine. These patients were identified based on a combination of prolonged survival and clinical response. The clinical response could either be stable disease (SD), partial response (PR) or complete response (CR). The vaccinated melanoma patients were diagnosed with stage IV at the time of inclusion in the clinical trial, but had no brain metastases. Lung cancer patient P5 was diagnosed with stage IV, inoperable lung cancer and colon cancer patient P1 with late stage inoperable colon cancer. Lung cancer patient P6 was a stage IV lung cancer patient with a 12-week life expectancy. Pancreas cancer patient P1 had relapsed, inoperable pancreas cancer and a life expectancy of 8-10 months. Four of the patients (designated Melanoma P7-P8, Lung cancer P5 and Colon cancer P1) had each been vaccinated with the peptide GV1001 (SEQ ID NO. 10). The fifth patient (designated Lung cancer P6) and the sixth patient (designated Pancreas cancer 1) had been vaccinated with dendritic cells transfected with mRNA encoding hTERT. The seventh patient, Melanoma patient P9, had not been vaccinated at the time of the study and instead developed a spontaneous response following development of the cancer. (An eighth and final patient was also identified as a clinical responder but samples from this patient were not available for study.)\nThe patients were classed as either clinical responders or clinical non-responders based on their clinical response which included stable disease (SD), tumour regression (PR or CR) and unexpectedly long survival time. Both clinical responders and clinical non-responders were selected from the same or similar vaccination trials."}, "T cells (patient PBMCs)": {"test_system": "T cells (patient PBMCs)", "assay": "T-cell proliferation assay (3H-thymidine) of patient PBMC/T cells with hTERT peptides or transfected DC", "assay_type": "cell-based, human", "procedure": "FIG. 1 is a bar graph summarising hTERT T-cell responses detected in pancreas cancer patient vaccinated with DC transfected with hTERT mRNA. In samples from various time points throughout a vaccination schedule, T-cell responses against 24 overlapping hTERT 15-mer peptides were detected. Proliferation in response to peptide-loaded PBMC was measured by ^3H-thymidine incorporation. A stimulation index of >2 is considered an immune response.\nPeripheral blood mononuclear cells (PBMCs) were obtained prior to the four standard vaccinations, after 5 weeks and after 12 weeks. PBMCs were also obtained before each monthly booster vaccination. The PBMCs were isolated and frozen as previously described (Kyte et al, 2005). Thawed PBMCs were stimulated once in vitro with tDCs (not with mockDCs) and cultured and then tested in T cell proliferation assays (^3H Thymidine) as previously described (Kyte et al 2006). The T cells were tested in triplicates. Irradiated tDCs and mock-transfected DC controls (mockDCs) were used or PBMC with or without hTERT peptide as APCs. Negative controls with T cells only were included.\nPBMCs from various time points were stimulated with an overlapping hTERT 15-mer peptide library or a 30-mer hTERT peptide, all from ProImmune and then tested in proliferation assays as above using irradiated PBMCs as APCs as described in (Bernhardt et al 2006).\nT-cell responses to a hTERT peptide library (including the polypeptides from Table 1) were determined for T-cells from 5 patients in addition to the patients reported in Examples 1 and 2. The methods were the same as previously described in Example 1 or in Bernhardt et al 2006. In brief, PBMCs from various time points during vaccination were stimulated with the overlapping hTERT peptide library prior to testing for specific T-cell responses in proliferation assays.\nThe proliferative T-cell responses of each patient to a series of peptides were then determined as explained in Example 1. The results are tabulated in Table 5 and are shown graphically in FIG. 14 in which the peptide designations are referenced in Table 6 (the results for peptides 726 and GV1001 are shown only for comparison).\nFour patients who were clinical non-responders following a lung cancer diagnosis and a GV1001 (SEQ ID NO. 10) peptide vaccination were studied. These patients were all stage IV lung cancer patients vaccinated with GV1001. […] The proliferative T-cell responses of each patient to a series of peptides were determined in the same manner as in Example 1, at one time point. The peak response of each patient during the study period to peptide GV1001 is also shown which confirms that each patient responded immunologically to GV1001 vaccination.\nSix patients who were clinical non-responders following a melanoma cancer diagnosis and a GV1001 peptide (SEQ ID NO. 10) vaccination were studied. These patients were all stage IV melanoma patients and included in the same GV1001 vaccination trial as melanoma patients P7 and P8 who were long term survivors (see Example 6). […] Five of the patients also experienced progressive disease and one patient, designated Melanoma P3, experienced some stabilization of the disease but still had short survival. The proliferative T-cell responses of each patient to a series of peptides were determined in the same manner as in Example 1, at one time point. The peak response of each patient during the study period to peptide GV1001 is also shown which confirms that each patient responded immunologically to GV1001 vaccination."}}, "data": [{"sequence": "EARPALLTSRLRFIPK (listed as Homo sapiens) [GV1001]", "values": [{"measurement": "Clinical Responder", "setting": "[1]", "value": "Yes"}, {"measurement": "Clinical response", "setting": "[1]", "value": "alive, CR"}, {"measurement": "Vaccine-specific T cell response at time-point tested", "setting": "[1]", "value": "Yes"}, {"measurement": "Survival (Months)", "setting": "[1]; + signifies that the patient is still alive", "value": "80+ Months"}, {"measurement": "SI of response", "setting": "T cells (patient PBMCs); all patients of Example 6", "value": "> 2"}, {"measurement": "immunological response of patients", "setting": "T cells (patient PBMCs); all patients of Examples 1 to 8", "value": "All patients responded immunologically"}, {"measurement": "proliferative T-cell response (SI)", "setting": "T cells (patient PBMCs); patient Colon ca P1, GV1001-vaccinated, clinical responder", "value": 105.1}, {"measurement": "proliferative T-cell response (SI)", "setting": "T cells (patient PBMCs); patient Lung ca P1, GV1001-vaccinated, clinical non-responder, one time point", "value": 0.9}, {"measurement": "Peak response GV1001", "setting": "T cells (patient PBMCs); patient Lung ca P1, peak during study period", "value": 60.95}, {"measurement": "proliferative T-cell response (SI)", "setting": "T cells (patient PBMCs); patient Lung ca P2, GV1001-vaccinated, clinical non-responder, one time point", "value": 122.8}, {"measurement": "Peak response GV1001", "setting": "T cells (patient PBMCs); patient Lung ca P2, peak during study period", "value": 122.8}, {"measurement": "proliferative T-cell response (SI)", "setting": "T cells (patient PBMCs); patient Lung ca P3, GV1001-vaccinated, clinical non-responder, one time point", "value": 1.4}, {"measurement": "Peak response GV1001", "setting": "T cells (patient PBMCs); patient Lung ca P3, peak during study period", "value": 161.6}, {"measurement": "proliferative T-cell response (SI)", "setting": "T cells (patient PBMCs); patient Lung ca P4, GV1001-vaccinated, clinical non-responder, one time point", "value": 1.2}, {"measurement": "Peak response GV1001", "setting": "T cells (patient PBMCs); patient Lung ca P4, peak during study period", "value": 13.3}, {"measurement": "proliferative T-cell response (SI)", "setting": "T cells (patient PBMCs); patient Lung ca P5, GV1001-vaccinated, clinical responder", "value": 20.1}, {"measurement": "proliferative T-cell response (SI)", "setting": "T cells (patient PBMCs); patient Lung ca P6, DC/hTERT mRNA-vaccinated, clinical responder, high background", "value": 7.1}, {"measurement": "proliferative T-cell response (SI)", "setting": "T cells (patient PBMCs); patient Melanoma P1, GV1001-vaccinated, clinical non-responder, one time point", "value": 1.4}, {"measurement": "Peak response GV1001", "setting": "T cells (patient PBMCs); patient Melanoma P1, peak during study period", "value": 26.0}, {"measurement": "proliferative T-cell response (SI)", "setting": "T cells (patient PBMCs); patient Melanoma P2, GV1001-vaccinated, clinical non-responder, one time point", "value": 0.9}, {"measurement": "Peak response GV1001", "setting": "T cells (patient PBMCs); patient Melanoma P2, peak during study period", "value": 38.7}, {"measurement": "proliferative T-cell response (SI)", "setting": "T cells (patient PBMCs); patient Melanoma P3, GV1001-vaccinated, clinical non-responder, one time point", "value": 1.8}, {"measurement": "Peak response GV1001", "setting": "T cells (patient PBMCs); patient Melanoma P3, peak during study period", "value": 3.7}, {"measurement": "proliferative T-cell response (SI)", "setting": "T cells (patient PBMCs); patient Melanoma P4, GV1001-vaccinated, clinical non-responder, one time point", "value": 1.2}, {"measurement": "Peak response GV1001", "setting": "T cells (patient PBMCs); patient Melanoma P4, peak during study period", "value": 10.7}, {"measurement": "proliferative T-cell response (SI)", "setting": "T cells (patient PBMCs); patient Melanoma P5, GV1001-vaccinated, clinical non-responder, one time point", "value": 25.2}, {"measurement": "Peak response GV1001", "setting": "T cells (patient PBMCs); patient Melanoma P5, peak during study period", "value": 35.4}, {"measurement": "proliferative T-cell response (SI)", "setting": "T cells (patient PBMCs); patient Melanoma P6, GV1001-vaccinated, clinical non-responder, one time point", "value": 21.4}, {"measurement": "Peak response GV1001", "setting": "T cells (patient PBMCs); patient Melanoma P6, peak during study period", "value": 122.0}, {"measurement": "proliferative T-cell response (SI)", "setting": "T cells (patient PBMCs); patient Melanoma P7, GV1001-vaccinated, clinical responder", "value": 76.5}, {"measurement": "proliferative T-cell response (SI)", "setting": "T cells (patient PBMCs); patient Melanoma P8, GV1001-vaccinated, clinical responder", "value": 13.2}, {"measurement": "proliferative T-cell response (SI)", "setting": "T cells (patient PBMCs); patient Melanoma P9, non-vaccinated, spontaneous response", "value": 1.7}, {"measurement": "proliferative T-cell response (SI)", "setting": "T cells (patient PBMCs); patient Pancreas ca P1, DC/hTERT mRNA-vaccinated, clinical responder, high background", "value": 2.2}]}]}
